Results on 55 compounds are retold here after a melting point compilation (Tetko et al.).

Residues, ends and D or L forms follow the SMILES beside them. *: point of attachment. Trt = c1ccc(C(c2ccccc2)(c2ccccc2)*)cc1; Cyclohexanecarbonyl = O=C(C1CCCCC1)*; Boc = CC(C)(C)OC(=O)*; Bn = c1ccc(C*)cc1

On to `O=C(Oc1ccc2c(OC(=O)c3ccc(OCc4ccccc4)c(Cl)c3)c3ccccc3cc2c1OC(=O)c1ccc(OCc2ccccc2)c(Cl)c1)c1ccc(OCc2ccccc2)c(Cl)c1`, for which the melting point was 106 to 109 °C. In turn, `Nc1n[nH]cc1C(=O)O` displayed a melting point of 135 °C. The result for `O=C(CC(=O)c1cc(F)c(F)cc1F)OCc1ccc(OCCCCCCCCCCC2c3c(c4ccccc4c4ccccc34)-c3c2c2ccccc2c2ccccc32)cc1` reads 58 to 60 °C. The result for `CCCCCCCCCCCCCCCC(=O)OCC(COC(=O)CCCCCCCCCCCCCCC)OC(=O)CCCC(=O)Oc1cc(Cl)ccc1Oc1ccc(Cl)cc1Cl` reads 44 to 46 °C. As for `O=S(=NCCN1CCOCC1)(c1cccs1)c1cccs1`, the melting point was 190 °C.

With `O=S(=O)(C(/C=C/c1ccc(Br)cc1)c1ccc(I)cc1)C(/C=C/c1ccc(Br)cc1)c1ccc(I)cc1` (stereo not given), the melting point was 217 to 219 °C. For `CC(C)[C@H](NC(=O)N(C)Cc1cscn1)C(=O)N[C@@H](Cc1ccccc1)[C@H](O)[C@@H](O)[C@H](Cc1ccccc1)NC(=O)[C@@H](NC(=O)N(C)Cc1csc(N)n1)C(C)C`, the melting point lay within 118 to 120 °C. In turn, `CCCCCCCCCCCCCCCCCCN(CCCCCCCCCCCCCCCCCC)C(=O)c1cc(NS(=O)(=O)c2ccc(NN)nc2)c2ccccc2c1O` displayed a melting point of 96 to 98 °C. `O=C1CCc2cc(O)c(I)cc21` came in with a melting point of 114 to 115 °C. For `CSCC[C@H](NC(=O)[C@H](CC(C)C)NC(=O)[C@H](C)NC(=O)[C@@H](N)CC(C)C)C(=O)NCCNc1ccc(NCCNC(=O)[C@H](CCSC)NC(=O)[C@H](CC(C)C)NC(=O)[C@H](C)NC(=O)[C@@H](N)CC(C)C)c2c1C(=O)c1c(O)ccc(O)c1C2=O`, the melting point worked out at 210 °C.

Take `CC(=O)OC1C(=O)C2(C)C(O)CC3OCC3(OC(C)=O)C2C(OC(=O)c2ccccc2)C23OC(=O)OC2C(OC(=O)C(O)C(CC(C)C)NC(=O)OC(C)(C)C)C(C)=C1C3(C)C` (stereo not given): the melting point worked out at 159 °C. To `CC(=O)OCC1OC(OC2C(COC(C)=O)OC(OC3C(CO)OC(OCCBr)C(OC(=O)c4ccccc4)C3OC(=O)c3ccccc3)C(OC(C)=O)C2OC(C)=O)C(OC(C)=O)C(OC(C)=O)C1OC(C)=O` (stereo not given) belongs 218 to 220 °C; to `O=C1COc2cc3c(cc2O1)C1(CO3)CN(Cc2cnccn2)c2ccccc21` (stereo not given), 216 to 218 °C. The result for `CCCCCCCCCCCCCCCC(=O)OCC1OC(n2cc(F)c(=O)n(C(=O)c3cccc(OC)c3OC)c2=O)CC1OC(=O)CCCCCCCCCCCCCCC` (stereo not given) reads 77 to 78 °C; that for `COC(=O)C(Cc1ccccc1)NC(=O)C(Cc1ccccc1)NC(=O)C(CC(N)=O)NC(=O)C(CCCCNC(=O)OC(C)(C)C)NC(=O)C(CSC(c1ccccc1)(c1ccccc1)c1ccccc1)NC(=O)CNC(=O)C(C)NC(=O)CNC(=O)CNC(=O)C(CC(C)C)NC(=O)OC(C)(C)C` (stereo not given) (Boc-LGGAGC(Trt)K(Boc)NFF-OMe; configuration not given here), 238 to 240 °C; that for `CC(C)(C)c1cc(Cc2cc(C(C)(C)C)cc(C(C)(C)C)c2Op2oc3c(C(C)(C)C)cc(C(C)(C)C)cc3c3cc(C(C)(C)C)cc(C(C)(C)C)c3o2)c(O)c(C(C)(C)C)c1`, 195 to 205 °C. As to `CC(=O)Nc1cc(COC2OC(COC(=O)c3ccc(Cl)cc3)C(OC3OC4COC(c5ccccc5)OC4C(OC(C)=O)C3OC(C)=O)C(OC(C)=O)C2OC(C)=O)ccc1Cl` (stereo not given), the melting point was 114 to 115 °C.

In turn, `COC(=O)C(CC(C)C)NC(=O)C(Cc1ccc(OCc2ccccc2)cc1)NC(=O)C(COCc1ccccc1)NC(=O)C(Cc1c[nH]c2ccccc12)NC(=O)C1CCCCC1` (Cyclohexanecarbonyl-WS(Bn)Y(Bn)L-OMe; configuration not given here) had a melting point of 158 to 160 °C. To `COC(=O)c1ccc(Cn2c(C(=O)C3CCN(CCC4(c5ccc(OC)c(OC)c5)CCN(C(=O)c5cc(OC)c(OC)c(OC)c5)C4)CC3)nc3ccccc32)cc1` (stereo not given) belongs 100 to 104 °C; to `CCC(Cc1c(I)cc(I)c(NC(=O)CCCCCNC(=O)C(COCc2ccccc2)N2CCNCCNCCNCC2)c1I)C(=O)O` (stereo not given), 144 °C; to `COc1ccc2c(c1)c(CC(=O)NCC(C)(C)SN=O)c(C)n2C(=O)c1ccc(Cl)cc1`, 177 to 178 °C. The result for `CCCCCCCCNc1nc(NCCCCC2CC(C)(C)N(OCC(C)(C)O)C(C)(C)C2)nc(NCCCCC2CC(C)(C)N(OCC(C)(C)O)C(C)(C)C2)n1` reads 68 to 86 °C. Consider `CCCC(=O)c1c[nH]c2ccc(COC(=O)c3ccccc3)cc2c1=O`, for which the melting point was in the range of 220 to 223 °C. To `CCCCCCCCCCCCSc1nc(N(C2CC(C)(C)NC(C)(C)C2)C2CC(C)(C)NC(C)(C)C2)nc(N(C2CC(C)(C)NC(C)(C)C2)C2CC(C)(C)NC(C)(C)C2)n1` belongs 168 to 170 °C. For the compound `O=Cc1ccc(OC(F)F)c(O)c1`, the melting point lay in the range of 82 to 83 °C. To `CN(C)CCCN=S(=O)(c1ccccc1)c1cccs1` (stereo not given) belongs 125 °C; to `CC(=O)OCC(CNC(=O)c1c(I)c(C(=O)NCC(COC(C)=O)OC(C)=O)c(I)c(N2CCCC(Br)C2=O)c1I)OC(C)=O` (stereo not given), 232 to 235 °C; to `CCCCCCCCCCCCCCCCCCN(CCCCCCCCCCCCCCCCCC)C(=O)c1cc(NS(=O)(=O)c2cnc(NN)c(Cl)c2)c2ccccc2c1O`, 75 to 77 °C. `CC(C)CC(NC(=O)OCc1ccccc1)C(=O)NC(C)C(=O)NC(CCCN(C(=N)NC(=O)OCc1ccccc1)C(=O)OCc1ccccc1)C(=O)Oc1cccc2ccccc12` (stereo not given) registered a melting point of 179 to 183 °C. The result for `CS(=N)(=O)Cc1ccc(Cl)nc1` (stereo not given) reads 134 to 136 °C; that for `CCCCc1ccc(C(=O)Nc2ccc(OC(=O)c3ccc(CCCC)cc3)c3c2C(=O)c2c(NC(=O)c4ccc(CCCC)cc4)cc(C)c(OC(=O)c4ccc(CCCC)cc4)c2C3=O)cc1`, more than 250 °C; that for `COc1ccc([N+](=O)[O-])cc1C(/C=C/c1ccc(I)cc1)S(=O)(=O)C(/C=C/c1ccc(I)cc1)c1cc([N+](=O)[O-])ccc1OC` (stereo not given), 218 to 221 °C. The result for `O=C(CCl)Nc1nc(-c2ccco2)c(C(=O)c2ccccn2)s1` reads 184 to 185 °C. The result for `CCCCCCCCCCCCCCCCCC(=O)OCC(COC(=O)C(N)Cc1ccc(N(CCCl)CCCl)cc1)OC(=O)CCCCCCCCCCCCCCCCC` (stereo not given) reads 82 to 83 °C.

In turn, `CCCCCCCCCCCCCCCCCCN(Cc1c(C)cc(C(C)(C)C)c(O)c1C)S(=O)(=O)c1ccc(-c2ccc(S(=O)(=O)N(CCCCCCCCCCCCCCCCCC)Cc3c(C)cc(C(C)(C)C)c(O)c3C)cc2)cc1` yielded a melting point of 208 to 210 °C.

Compound `CC(=O)OCC(COC(C)=O)NC(=O)c1c(I)c(C(=O)NC(COC(C)=O)COC(C)=O)c(I)c(N2C(=O)OCC2CO)c1I` (stereo not given) had a melting point of 235 to 240 °C. Take `CCCCN(c1nc(NC(C)(C)CC(C)(C)C)nc(N(CCCC)C2CC(C)(C)N(OC3CCCCC3)C(C)(C)C2)n1)C1CC(C)(C)N(OC2CCCCC2)C(C)(C)C1`: the melting point fell in the range of 85 to 103 °C. Take `CCOC(=O)c1cc2cc(OC)cc(NS(=O)(=O)c3cccs3)c2[nH]1`: the melting point was 158 to 159 °C. On to `O=C(CCS(=O)(=O)CCCl)OCC(COC(=O)CCS(=O)(=O)CCCl)(COC(=O)CCS(=O)(=O)CCCl)COC(=O)CCS(=O)(=O)CCCl`, for which the melting point fell in the range of 68 to 69 °C.

Compound `CC(=O)N1C(C)(C)CC(OC(=O)C(Cc2cc(C)c(O)c(C(C)(C)C)c2)(Cc2cc(C)c(O)c(C(C)(C)C)c2)C(=O)OC2CC(C)(C)N(C(C)=O)C(C)(C)C2)CC1(C)C` had a melting point of 189 °C. The result for `Cn1nc(COC(=O)CCC(=O)OCc2nc(NCCCOc3cccc(CN4CCCCC4)c3)n(C)n2)nc1NCCCOc1cccc(CN2CCCCC2)c1` reads 80 to 81.5 °C; that for `CCCCCCCCCCCCCCCC(=O)OCC(CSCC(NC(=O)OCc1cccc2c1Cc1ccccc1-2)C(=O)O)OC(=O)CCCCCCCCCCCCCCC` (mixture of isomers), 82 to 84 °C. The result for `CC(C)CC1C(=O)OC(Cc2ccc(OCc3ccco3)cc2)C(=O)N(C)C(CC(C)C)C(=O)OC(C)CN(C)C(CC(C)C)C(=O)OC(Cc2ccc(OCc3ccco3)cc2)C(=O)N(C)C(CC(C)C)C(=O)OC(C)CN1C` (stereo not given) reads 116 to 119 °C; that for `CCCCCCCCCCCCCCCCCCOc1cc(OCCCCc2ccc3cc(OCc4ccccc4)c(OCc4ccccc4)cc3c2)cc(N(CC(=O)O)CC(=O)O)c1`, 83 to 86 °C; that for `O=C(Nc1ccc(Cl)cc1)c1ccc(-c2nn[nH]n2)c(NC(=O)c2sc3ccccc3c2Cl)c1`, more than 250 °C. The result for `O=C(Nc1cc(Cl)cc(Cl)c1)c1c(O)ccc2ccccc12` reads 246 to 248 °C.

Regarding `COC(=O)C(CCN1C(=O)c2ccccc2C1=O)Oc1c(Br)cc(-c2c3ccccc3c(Br)c3sc4ccccc4c23)cc1Br` (stereo not given), the melting point was 221 to 222 °C. The result for `CCCCCCCCCCCCCCCCCCOC(=O)CSCc1cc(CSCC(=O)OCCCCCCCCCCCCCCCCCC)c(O)c(CSCC(=O)OCCCCCCCCCCCCCCCCCC)c1` reads 70 to 71 °C; that for `N#Cc1cccc(N2CCOCC2)c1`, 105 °C; that for `CCCCCCCCCCSc1c(SCCCCCCCCCC)c(SCCCCCCCCCC)c(C(O)=NCCO)c(C(=O)O)c1SCCCCCCCCCC`, 57 to 58 °C. To `CCC1(CC)c2cc(-c3ccc(N(c4ccccc4)c4ccc(-c5ccc6c(c5)C(CC)(CC)c5cc(-c7nc8ccccc8s7)ccc5-6)cc4)cc3)ccc2-c2ccc(-c3nc4ccccc4s3)cc21` belongs 257 to 262 °C; to `O=C(OI(OC(=O)C(F)(F)F)C(F)(F)C(F)(F)C(F)(F)C(F)(F)C(F)(F)C(F)(F)C(F)(F)C(F)(F)C(F)(F)C(F)(F)F)C(F)(F)F`, 83 to 88 °C; to `CCCCCCCCCCCCCCCCCN1C(=O)C2=C(c3ccc(Br)s3)N(CCCCCCCCCCCCCCCCC)C(=O)C2=C1c1ccc(Br)s1`, 166 to 167 °C. The result for `CC(C)(C)c1cc(SC(CCCC(Sc2cc(C(C)(C)C)c(O)c(C(C)(C)C)c2)Sc2cc(C(C)(C)C)c(O)c(C(C)(C)C)c2)Sc2cc(C(C)(C)C)c(O)c(C(C)(C)C)c2)cc(C(C)(C)C)c1O` reads 148 to 153 °C. Compound `NC(=NO)c1ccc(Cl)cc1Cl` registered a melting point of 149 to 151 °C.
